Test results reported in patent US9618513B2, “Compositions and methods for detecting and treating colorectal cancer” (The Regents of the University of Michigan, priority 2014, dated 2017).
Entries after “also recorded” stand apart in the source; their conditions may differ.

Columns and labels:
Assay type in all cases: cell-based, human
[1] = test system: H3K79me2 (DOT1L); experiment: Histone marks by western blot in colon cancer cells
Procedure: (§1) (A) IL-22 induces H3K79me2 in colon cancer cells. Colon cancer cells were treated with IL-22 for 48 hours. Total histone modifications were analyzed by western blot. (B, C) DOT1L inhibitor, EPZ004777 suppresses colon cancer sphere formation induced by IL-22. Colon cancer sphere assay was performed in the presence of IL-22 and EPZ004777. Sphere numbers were recorded. DLD-1 cells (B), primary colon cancer cells (C). (n=5, P<0.05). (D, E) IL-22 stimulates DOT1L complex gene expression. Colon cancer cells were cultured for 12 hours with IL-22. DOT1L complex gene expression was quantified by real-time PCR. DLD-1 cells (D), primary colon cancer cells (E). (n=3, P<0.05). (F) DOT1L knock down results in reduced colon cancer sphere formation induced by IL-22. Colon cancer sphere assay was performed with colon cancer cells expressing sh-DOT1L or vector in the presence of IL-22. Sphere numbers were recorded. (n=5, P<0.05). (G-I), IL-22 causes higher occupancy of H3K79me2 on core stem cell gene promoters. H3K79me2-ChIP assay was performed in DLD-1 colon cancer cells cultured with IL-22. One of 3 experiments is shown. […]
DLD1 and primary colon cancer cells (#2) were cultured with different concentrations of EPZ004777. Histone marks were detected by western blot. […]
Colon cancer cells were transfected with control vectors or the shDOT1L vector. Histone marks were detected by Western blot. […]

[2] = test system: H3K79me2 on NANOG, SOX2, POU5F1 promoters; experiment: H3K79me2-ChIP at core stem cell gene promoters
Procedure: as §1, with “shown. (J-L), DOT1L inhibitor, EPZ004777 results in reduced occupancy of H3K79 on core stem cell gene promoters induced by IL-22. H3K79me2 ChIP was performed in DLD-1 colon cancer cells cultured with or without IL-22 and EPZ004777. One of three experiments is shown.” for “shown.”

[3] = test system: colon cancer cells; experiment: Colon cancer cell proliferation (Ki67 FACS, H3 thymidine incorporation, cell counting)
Source text: A. GSEA analysis identifies proliferation pathways have positive correlation with IL-22. B. Cell proliferation maker Ki67 was detected by FACS. C. H^3 Thymidine Incorporation was used to detect the function of IL-22 in cell proliferation. D. Cell number was counted after stimulated with IL-22. E. Cells isolated from colon cancer tissue (Tumor cells and Leukocytes) were stimulated with a-CD3 and […] for 3 days, and supernatant mixed with or without anti-IL-22 antibody was co-cultured with DLD1 cells for 24 h to test cell proliferation. F. Cell cyclin-dependent kinase and kinase inhibitors were analyzed by Real-Time PCR.
A, C. Cell proliferation was analyzed using H^3 Thymidine Incorporation. B. The level of total H3K79m2 and H3K27me3 was measured by Western Blot. D. PcG proteins of EZH2, EED, SUZ12 was increased with IL-22(20 ng/ml) treatment. E. EZH2, SUZ12 and EED was detected by Western Blot after IL-22 treated for 24 h or 48 h. F. EZH2 inhibitor DZNep reduced cell proliferation. G.H. The efficiency of EZH2 and SUZ12 knock down was tested by Western Blot. I.J. Cell proliferation was analyzed using H^3 Thymidine Incorporation after knock down of EZH2 and SUZ12. K.L. Relative expression of cyclin-dependent kinase inhibitors (p16 and p18) in shEZH2, shSUZ12 and Dznep treated cells after IL-22 treatment. M. The level of H3K27me3 in the promoter of p16 and p18 was analyzed by ChIP assay.
A. The protein level of phosphorylated STAT3, STAT1 and STATS were activated by IL-22. B. The effect of STAT3 knock down. C. The effect of IL-22 on cell proliferation was analyzed using H^3 Thymidine Incorporation in Stat3 knock down cells. D. Knock down of STAT3 reduced the expression of EZH2 and SUZ12. E. Based on the ENCODE STAT3-ChIP-Seq data base, STAT3 occupancy on the promoter areas of SUZ12 and EED is shown. F. SUZ12/EED DNA was detected by ChIP assay using an antibody against STAT3, c-fos was used as a positive control.
Three primary colon cancer cell lines (SB, WR, JR) were established from fresh colon tissues. These primary colon cancer cells and DLD1 (ATCC) were studied. Colon cancer cells were treated with recombinant IL-22 (R&D) for different time points. The EZH2 inhibitor DZNep was added in conventional or sphere culture (see, e.g., Kryczek, I., et al., (2012) International journal of cancer 130, 29-39). Tumor cell sphere formation and gene expression were examined (see, e.g., Kryczek, I., et al., (2012) International journal of cancer 130, 29-39).

| Compound | H3K79me2 / H3K79 methylation ([1]; DLD1 and primary colon cancer cells (#2), different concentrations) | H3K79me2 binding in the stem cell gene promoter sites induced by IL-22 ([2]; DLD-1 with or without IL-22 and EPZ004777) | colon cancer cell proliferation induced by IL-22 ([3]; H3 thymidine incorporation) | dimethylation of histone 3 lysine 79 (H3K79me2), total ([1]; colon cancer cells, IL-22 48 hours) | H3K79me2 binding in proximal promoter areas of NANOG, SOX2, POU5F1 ([2]; DLD-1 cultured with IL-22) | expression of Ki-67 ([3]; FACS) | cell proliferation ([3]; H3 thymidine incorporation and cell number counting) |
| --- | --- | --- | --- | --- | --- | --- | --- |
| CC(C)N(CCCNC(=O)Nc1ccc(C(C)(C)C)cc1)C[C@H]1O[C@@H](n2ccc3c(N)ncnc32)[C@H](O)[C@@H]1O [EPZ004777] | reduced; also recorded: specifically inhibits | reduced | no influence |  |  |  |  |
| IL-22: recombinant IL-22 (R&D systems), cytokine interleukin-22 |  |  |  | selectively increased | increase | increased | increased |
